Drawing on paper PMC6695811, “Protein Phosphatase Ppz1 Is Not Regulated by a Hal3-Like Protein in Plant Pathogen Ustilago maydis” (International Journal of Molecular Sciences, 2019), this text covers phosphatase activity assay for one compound.

What all share (test): phosphatase activity assay
What all share (type): biochemical
What all share (settings): 10 mM pNPP

One test concerns the target T1, ScPpz1 (Saccharomyces cerevisiae, UniProt P26570).
T1 construct: gene PPZ1; full length, 692 residues, GST fusion from E. coli BL21(DE3) RIL, GST tag cut by PreScission
T1 sequence (P26570 1-692): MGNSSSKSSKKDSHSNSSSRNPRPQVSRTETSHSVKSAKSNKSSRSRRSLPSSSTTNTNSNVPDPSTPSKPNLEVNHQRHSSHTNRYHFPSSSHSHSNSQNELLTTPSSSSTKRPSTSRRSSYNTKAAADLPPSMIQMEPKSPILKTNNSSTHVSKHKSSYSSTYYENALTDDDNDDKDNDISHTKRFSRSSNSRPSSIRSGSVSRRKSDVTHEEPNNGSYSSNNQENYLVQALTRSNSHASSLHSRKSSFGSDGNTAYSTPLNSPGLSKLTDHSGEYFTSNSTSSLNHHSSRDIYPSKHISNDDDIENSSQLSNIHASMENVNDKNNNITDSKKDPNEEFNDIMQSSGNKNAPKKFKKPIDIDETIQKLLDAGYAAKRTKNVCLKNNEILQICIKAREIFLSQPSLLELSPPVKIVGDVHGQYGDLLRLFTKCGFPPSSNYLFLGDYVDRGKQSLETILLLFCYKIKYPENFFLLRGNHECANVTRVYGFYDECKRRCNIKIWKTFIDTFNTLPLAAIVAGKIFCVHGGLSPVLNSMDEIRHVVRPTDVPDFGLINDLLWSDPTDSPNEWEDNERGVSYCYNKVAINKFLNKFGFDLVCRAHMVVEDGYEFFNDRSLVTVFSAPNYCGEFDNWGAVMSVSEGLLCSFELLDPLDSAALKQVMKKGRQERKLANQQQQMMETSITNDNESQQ

For the next test, the target named is T2, UmPpz1 (Mycosarcoma maydis, UniProt A0A0D1DW62).
T2 construct: gene UMAG_04827; full-length ORF, 497 residues, from FB1 genomic DNA in pGEX-6p-1, E. coli BL21(DE3) RIL, GST tag cut by PreScission
T2 sequence (A0A0D1DW62 1-497): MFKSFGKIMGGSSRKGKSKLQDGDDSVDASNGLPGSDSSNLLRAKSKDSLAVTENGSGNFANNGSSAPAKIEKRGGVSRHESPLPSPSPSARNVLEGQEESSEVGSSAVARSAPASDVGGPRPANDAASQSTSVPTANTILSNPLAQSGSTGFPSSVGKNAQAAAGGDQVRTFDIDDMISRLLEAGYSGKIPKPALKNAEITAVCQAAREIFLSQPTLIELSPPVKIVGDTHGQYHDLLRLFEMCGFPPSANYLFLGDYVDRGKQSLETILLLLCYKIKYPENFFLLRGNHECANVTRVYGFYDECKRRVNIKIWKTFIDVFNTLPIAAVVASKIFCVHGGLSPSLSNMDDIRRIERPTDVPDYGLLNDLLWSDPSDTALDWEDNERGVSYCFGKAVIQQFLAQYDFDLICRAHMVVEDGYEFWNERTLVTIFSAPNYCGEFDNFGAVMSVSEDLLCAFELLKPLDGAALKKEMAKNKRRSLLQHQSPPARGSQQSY

The target in a further test is T3, UmPpz1-s (Mycosarcoma maydis, UniProt A0A0D1DW62).
T3 construct: gene UMAG_04827; short version lacking residues 1-8 (starts at Met9), pGEX-6p-1, E. coli BL21(DE3) RIL, GST tag cut by PreScission
T3 sequence (A0A0D1DW62 9-497): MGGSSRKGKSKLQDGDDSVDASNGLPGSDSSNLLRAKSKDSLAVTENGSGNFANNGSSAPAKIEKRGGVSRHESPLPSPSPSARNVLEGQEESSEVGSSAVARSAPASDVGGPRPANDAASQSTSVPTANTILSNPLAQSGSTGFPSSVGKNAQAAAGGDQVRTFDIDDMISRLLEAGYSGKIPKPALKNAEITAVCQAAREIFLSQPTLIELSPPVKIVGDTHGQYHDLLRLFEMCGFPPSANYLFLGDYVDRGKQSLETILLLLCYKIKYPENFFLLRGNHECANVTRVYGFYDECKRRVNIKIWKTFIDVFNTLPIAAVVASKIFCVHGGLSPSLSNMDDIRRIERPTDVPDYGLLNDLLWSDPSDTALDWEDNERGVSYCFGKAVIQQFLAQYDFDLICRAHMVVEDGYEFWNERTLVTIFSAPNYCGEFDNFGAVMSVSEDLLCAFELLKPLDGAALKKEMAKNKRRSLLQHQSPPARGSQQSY

For the compound `O=[N+]([O-])c1ccc(OP(=O)(O)O)cc1` [p-nitrophenylphosphate], the phosphatase activity assay entry at ScPpz1 is “substrate pNPP which was similar to that observed for ScPpz1”; at UmPpz1, “showed phosphatase activity against the synthetic substrate pNPP”; on UmPpz1-s, “The recombinant enzyme (as well as UmPpz1-s) showed phosphatase activity against the synthetic substrate pNPP”.
